Data published in ChEMBL document CHEMBL4261502, “Histone lysine methyltransferase structure activity relationships that allow for segregation of G9a inhibition and anti-Plasmodium activity” (Medchemcomm, 2017).

Test system: Plasmodium falciparum
Assay: Antiplasmodial activity against Plasmodium falciparum 3D7 after 3 days by SYBR green1 dye based assay
Format: functional, organism-based
Settings: 3D7, 72 h

| SMILES | IC50 [nM] |
| --- | --- |
| COc1cc2c(NC3CCN(C)CC3)nc(N3CCCN(C)CC3)nc2cc1OCc1ccccc1 | 43 |
| COc1cc2nc(N3CCCN(C)CC3)nc(NC3CCN(Cc4ccccc4)CC3)c2cc1OC | 43 |
| COc1cc2nc(N3CCN(C)CC3)nc(NC3CCN(C)CC3)c2cc1OC | > 300 |
| COc1cc2nc(N3CCCN(C)CC3)nc(NC3CCN(C)CC3)c2cc1OC | > 300 |

More lines, now with the values ahead:

| IC50 [nM] | SMILES |
| --- | --- |
| > 2000 | COc1cc2c(NC3CCN(C)CC3)nc(N3CCCN(C)CC3)nc2cc1OCCN(C)C |
| > 2000 | COc1cc2c(NC3CCN(C)CC3)nc(N3CCCN(C)CC3)nc2cc1OCCCN1CCCC1 |
| > 2000 | COc1cc2c(NC3CCN(C)CC3)nc(N3CCCN(C)CC3)nc2cc1OCCCN1CCCCC1 |
| > 2000 | COc1cc2c(NC3CCN(C)CC3)nc(N3CCCN(C)CC3)nc2cc1OCCCN(C)C |
